Assay results reported in publication PMC10804372, “Degradation by Design: New Cyclin K Degraders from Old CDK Inhibitors” (ACS Chemical Biology, 2024).

Key:
CDK12 = biological target: T1, CDK12 (Homo sapiens, UniProt Q9NYV4); test: KINOMEscan binding assay (Eurofins DiscoverX); conditions: KINOMEscan
T1 construct: purchased Eurofins DiscoverX (KINOMEscan service)

HEK293T cells = test: Proteome-wide quantitation by mass spectrometry (TMT); type: cell-based, human; conditions: for log2FC compound 41: 1uM, 2h
Cyclin K [1] = test: Cyclin K degradation concentration-response (DC50, DMax) by Western blot; type: cell-based, human; conditions: HEK293T, Western blot quantification, 3 biological repeats
How it was run: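 HEK293T cells treated across a concentration range; lysates immunoblotted for Cyclin K with GAPDH as loading control, ECL detection. Band intensities quantified, Cyclin K normalized to GAPDH, and DC50 derived by 4-parameter nonlinear regression of concentration–response curves.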

Cyclin K [2] = test: Cyclin K levels by Western blot after single-concentration treatment; type: cell-based, human; conditions: HEK293T cells, 1 μM for 2 h, quantified from Western blots, mean ± SD, three independent experiments
How it was run: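 Cyclin K quantified by Western blot of HEK293T lysates after a single compound concentration, with ImageJ densitometry normalized to GAPDH. Cells grown in DMEM/10% FBS at 37 °C, 5% CO2.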

T1 sequence (Q9NYV4 whole entry): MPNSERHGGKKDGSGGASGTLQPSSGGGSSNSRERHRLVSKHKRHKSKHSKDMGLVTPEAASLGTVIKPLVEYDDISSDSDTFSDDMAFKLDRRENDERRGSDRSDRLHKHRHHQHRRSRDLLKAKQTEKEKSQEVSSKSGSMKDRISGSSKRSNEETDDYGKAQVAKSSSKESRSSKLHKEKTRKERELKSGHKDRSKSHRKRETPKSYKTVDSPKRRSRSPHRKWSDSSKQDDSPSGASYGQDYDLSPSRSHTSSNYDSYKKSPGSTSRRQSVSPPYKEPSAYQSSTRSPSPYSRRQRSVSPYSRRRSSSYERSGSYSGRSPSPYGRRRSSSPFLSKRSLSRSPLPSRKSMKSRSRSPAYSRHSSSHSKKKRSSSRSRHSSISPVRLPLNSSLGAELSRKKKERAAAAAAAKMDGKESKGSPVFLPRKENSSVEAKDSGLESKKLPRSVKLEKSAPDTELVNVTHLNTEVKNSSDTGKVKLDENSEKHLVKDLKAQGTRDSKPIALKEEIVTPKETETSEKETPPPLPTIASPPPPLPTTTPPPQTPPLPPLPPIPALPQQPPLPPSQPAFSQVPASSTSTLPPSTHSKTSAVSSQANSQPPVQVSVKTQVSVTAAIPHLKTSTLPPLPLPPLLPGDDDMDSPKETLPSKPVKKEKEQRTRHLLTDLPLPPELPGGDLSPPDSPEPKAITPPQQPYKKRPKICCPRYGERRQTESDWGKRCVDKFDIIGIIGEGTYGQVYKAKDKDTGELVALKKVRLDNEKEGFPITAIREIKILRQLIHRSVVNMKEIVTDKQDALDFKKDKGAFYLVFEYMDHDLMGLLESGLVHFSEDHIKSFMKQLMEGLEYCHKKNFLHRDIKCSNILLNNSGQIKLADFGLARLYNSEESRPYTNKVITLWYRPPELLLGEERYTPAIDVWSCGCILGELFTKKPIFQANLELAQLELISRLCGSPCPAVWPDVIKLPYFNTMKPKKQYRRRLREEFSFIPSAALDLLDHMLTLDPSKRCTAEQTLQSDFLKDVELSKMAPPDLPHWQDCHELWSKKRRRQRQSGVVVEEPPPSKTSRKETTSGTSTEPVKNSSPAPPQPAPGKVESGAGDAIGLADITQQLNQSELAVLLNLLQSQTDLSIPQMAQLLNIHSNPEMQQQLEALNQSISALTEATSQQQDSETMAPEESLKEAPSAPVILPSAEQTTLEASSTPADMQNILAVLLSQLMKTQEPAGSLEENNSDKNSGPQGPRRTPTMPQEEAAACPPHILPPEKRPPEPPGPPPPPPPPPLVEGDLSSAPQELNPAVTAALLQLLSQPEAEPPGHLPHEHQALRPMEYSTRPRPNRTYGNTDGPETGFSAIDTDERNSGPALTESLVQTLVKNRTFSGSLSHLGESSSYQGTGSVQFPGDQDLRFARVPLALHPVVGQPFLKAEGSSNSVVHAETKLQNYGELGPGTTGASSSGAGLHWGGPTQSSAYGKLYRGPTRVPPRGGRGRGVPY

O=C(NCc1ccc(C2=CCOCC2)cc1)c1n[nH]cc1NC(=O)c1c(Cl)cccc1Cl [compound 41]
Kd (CDK12): 3800 nM | log2FC compound 41 (HEK293T cells): 1.1108 | number of proteins showing at least a −0.5 log2 fold change (HEK293T cells; HEK293T, 1 μM, 2 h treatment): 33 proteins | log2FC compound 41 (HEK293T cells; protein AKR7A2 (Aflatoxin B1 aldehyde reductase member 2, O43488)): -0.7339 | log2FC compound 41 (HEK293T cells; protein ALG10 (Dol-P-Glc:Glc(2)Man(9)GlcNAc(2)-PP-Dol alpha-1,2-glucosyltransferase, Q5BKT4)): 0.9798 | log2FC compound 41 (HEK293T cells; protein ALKBH2 (DNA oxidative demethylase ALKBH2, Q6NS38)): 0.728 | log2FC compound 41 (HEK293T cells; protein ARF4 (ADP-ribosylation factor 4, P18085)): 0.7714 | log2FC compound 41 (HEK293T cells; protein ATP6AP1 (V-type proton ATPase subunit S1, Q15904)): 0.6251 | log2FC compound 41 (HEK293T cells; protein B3GLCT (Beta-1,3-glucosyltransferase, Q6Y288)): 0.6029 | log2FC compound 41 (HEK293T cells; protein BTF3L4 (Transcription factor BTF3 homolog 4, Q96K17)): 0.5924 | log2FC compound 41 (HEK293T cells; protein C1orf167 (Uncharacterized protein C1orf167, Q5SNV9)): 1.3705 | log2FC compound 41 (HEK293T cells; protein CCNK (Cyclin-K, O75909)): -1.4213 | log2FC compound 41 (HEK293T cells; protein CD9 (CD9 antigen, P21926)): 0.6995 | log2FC compound 41 (HEK293T cells; protein CD59 (CD59 glycoprotein, P13987)): 1.3635 | log2FC compound 41 (HEK293T cells; protein CD63 (CD63 antigen, P08962)): 1.3469 | log2FC compound 41 (HEK293T cells; protein CD151 (CD151 antigen, P48509)): 0.7942 | log2FC compound 41 (HEK293T cells; protein CDKL5 (Cyclin-dependent kinase-like 5, O76039)): 1.2994 | log2FC compound 41 (HEK293T cells; protein CENPW (Centromere protein W, Q5EE01)): 0.6212 | log2FC compound 41 (HEK293T cells; protein CERS1 (Ceramide synthase 1, P27544)): 0.5956 | log2FC compound 41 (HEK293T cells; protein CHCHD1 (Coiled-coil-helix-coiled-coil-helix domain-containing protein 1, Q96BP2)): -0.843 | log2FC compound 41 (HEK293T cells; protein CHCHD2 (Coiled-coil-helix-coiled-coil-helix domain-containing protein 2, Q9Y6H1)): -0.961 | log2FC compound 41 (HEK293T cells; protein CNOT8 (CCR4-NOT transcription complex subunit 8, Q9UFF9)): 0.5912 | log2FC compound 41 (HEK293T cells; protein COA7 (Cytochrome c oxidase assembly factor 7, Q96BR5)): -0.7413 | log2FC compound 41 (HEK293T cells; protein COPRS (Coordinator of PRMT5 and differentiation stimulator, Q9NQ92)): 0.7957 | log2FC compound 41 (HEK293T cells; protein COX6B1 (Cytochrome c oxidase subunit 6B1, P14854)): 0.7689 | log2FC compound 41 (HEK293T cells; protein COX7A2 (Cytochrome c oxidase subunit 7A2, mitochondrial, P14406)): -1.7055 | log2FC compound 41 (HEK293T cells; protein CSNK2B (Casein kinase II subunit beta, P67870)): 0.62 | log2FC compound 41 (HEK293T cells; protein CTSV (Cathepsin L2, O60911)): 0.7835 | log2FC compound 41 (HEK293T cells; protein DCDC1 (Doublecortin domain-containing protein 1, M0R2J8)): 1.8264 | log2FC compound 41 (HEK293T cells; protein DHX58 (Probable ATP-dependent RNA helicase DHX58, Q96C10)): 1.0451 | log2FC compound 41 (HEK293T cells; protein DNAJC5 (DnaJ homolog subfamily C member 5, Q9H3Z4)): 0.994 | log2FC compound 41 (HEK293T cells; protein DNPEP (Aspartyl aminopeptidase, Q9ULA0)): 0.6304 | log2FC compound 41 (HEK293T cells; protein DYNLL1 (Dynein light chain 1, cytoplasmic, P63167)): -0.6985 | log2FC compound 41 (HEK293T cells; protein ECI1 (Enoyl-CoA delta isomerase 1, mitochondrial, P42126)): 0.8277 | log2FC compound 41 (HEK293T cells; protein EI24 (Etoposide-induced protein 2.4 homolog, O14681)): 0.8122 | log2FC compound 41 (HEK293T cells; protein EIF5A2 (Eukaryotic translation initiation factor 5A-2, Q9GZV4)): 1.4183 | log2FC compound 41 (HEK293T cells; protein ELP5 (Elongator complex protein 5, Q8TE02)): 0.6971 | log2FC compound 41 (HEK293T cells; protein ERGIC3 (Endoplasmic reticulum-Golgi intermediate compartment protein 3, Q9Y282)): -0.6608 | log2FC compound 41 (HEK293T cells; protein FAM219A (Protein FAM219A, Q8IW50)): 0.6921 | log2FC compound 41 (HEK293T cells; protein FAM234A (Protein FAM234A, Q9H0X4)): 0.9598 | log2FC compound 41 (HEK293T cells; protein GGH (Gamma-glutamyl hydrolase, Q92820)): 0.639 | log2FC compound 41 (HEK293T cells; protein GNA15 (Guanine nucleotide-binding protein subunit alpha-15, P30679)): 1.1022 | log2FC compound 41 (HEK293T cells; protein GYG2 (Glycogenin-2, O15488)): 0.8256 | log2FC compound 41 (HEK293T cells; protein H2AC6 (Histone H2A type 1-C, Q93077)): -2.3143 | log2FC compound 41 (HEK293T cells; protein H2AC14 (Histone H2A type 1-J, Q99878)): -2.3989 | log2FC compound 41 (HEK293T cells; protein HMGN2 (Non-histone chromosomal protein HMG-17, P05204)): -0.8432 | log2FC compound 41 (HEK293T cells; protein HNRNPA2B1 (Heterogeneous nuclear ribonucleoproteins A2/B1, P22626)): -0.5885 | log2FC compound 41 (HEK293T cells; protein HSPB11 (Intraflagellar transport protein 25 homolog, Q9Y547)): 0.7236 | log2FC compound 41 (HEK293T cells; protein KCTD1 (BTB/POZ domain-containing protein KCTD1, Q719H9)): 0.9367 | log2FC compound 41 (HEK293T cells; protein KIAA0930 (Uncharacterized protein KIAA0930, Q6ICG6)): 0.6862 | log2FC compound 41 (HEK293T cells; protein KIAA1549 (UPF0606 protein KIAA1549, Q9HCM3)): 0.7226 | log2FC compound 41 (HEK293T cells; protein LIPA (Lysosomal acid lipase/cholesteryl ester hydrolase, P38571)): 0.766 | log2FC compound 41 (HEK293T cells; protein LIPT2 (Putative lipoyltransferase 2, mitochondrial, A6NK58)): -0.7183 | log2FC compound 41 (HEK293T cells; protein LPCAT3 (Lysophospholipid acyltransferase 5, Q6P1A2)): 1.5824 | log2FC compound 41 (HEK293T cells; protein LPIN2 (Phosphatidate phosphatase LPIN2, Q92539)): 0.7762 | log2FC compound 41 (HEK293T cells; protein LSM1 (U6 snRNA-associated Sm-like protein LSm1, O15116)): 1.1318 | log2FC compound 41 (HEK293T cells; protein MEIS1 (Homeobox protein Meis1, O00470)): -0.7006 | log2FC compound 41 (HEK293T cells; protein MGARP (Protein MGARP, Q8TDB4)): 0.8294 | log2FC compound 41 (HEK293T cells; protein MKRN1 (E3 ubiquitin-protein ligase makorin-1, Q9UHC7)): 0.6085 | log2FC compound 41 (HEK293T cells; protein MRPL24 (39S ribosomal protein L24, mitochondrial, Q96A35)): -0.8105 | log2FC compound 41 (HEK293T cells; protein MSMO1 (Methylsterol monooxygenase 1, Q15800)): 0.6949 | log2FC compound 41 (HEK293T cells; protein MT-ND4 (NADH-ubiquinone oxidoreductase chain 4, P03905)): 0.7038 | log2FC compound 41 (HEK293T cells; protein NCBP2AS2 (Protein NCBP2AS2, Q69YL0)): -0.5975 | log2FC compound 41 (HEK293T cells; protein NIPA2 (Magnesium transporter NIPA2, Q8N8Q9)): 0.8891 | log2FC compound 41 (HEK293T cells; protein NSMCE4A (Non-structural maintenance of chromosomes element 4 homolog A, Q9NXX6)): 0.6459 | log2FC compound 41 (HEK293T cells; protein NXT2 (NTF2-related export protein 2, Q9NPJ8)): 1.4453 | log2FC compound 41 (HEK293T cells; protein ORC4 (Origin recognition complex subunit 4, O43929)): 0.6334 | log2FC compound 41 (HEK293T cells; protein OSTC (Oligosaccharyltransferase complex subunit OSTC, Q9NRP0)): 0.6129 | log2FC compound 41 (HEK293T cells; protein POP5 (Ribonuclease P/MRP protein subunit POP5, Q969H6)): 0.6256 | log2FC compound 41 (HEK293T cells; protein PPP1CB (Serine/threonine-protein phosphatase PP1-beta catalytic subunit, P62140)): -0.8644 | log2FC compound 41 (HEK293T cells; protein PRPF38A (Pre-mRNA-splicing factor 38A, Q8NAV1)): 0.6341 | log2FC compound 41 (HEK293T cells; protein RBX1 (E3 ubiquitin-protein ligase RBX1, P62877)): 0.6251 | log2FC compound 41 (HEK293T cells; protein RER1 (Protein RER1, O15258)): 0.5922 | log2FC compound 41 (HEK293T cells; protein RPS29 (40S ribosomal protein S29, P62273)): -1.1057 | log2FC compound 41 (HEK293T cells; protein SDHAF4 (Succinate dehydrogenase assembly factor 4, mitochondrial, Q5VUM1)): 0.8419 | log2FC compound 41 (HEK293T cells; protein SEC11C (Signal peptidase complex catalytic subunit SEC11C, Q9BY50)): -0.5851 | log2FC compound 41 (HEK293T cells; protein SERINC3 (Serine incorporator 3, Q13530)): 0.6778 | log2FC compound 41 (HEK293T cells; protein SIAE (Sialate O-acetylesterase, Q9HAT2)): 0.753 | log2FC compound 41 (HEK293T cells; protein SLC25A17 (Peroxisomal membrane protein PMP34, O43808)): 1.1015 | log2FC compound 41 (HEK293T cells; protein SLC44A2 (Choline transporter-like protein 2, Q8IWA5)): 1.0845 | log2FC compound 41 (HEK293T cells; protein SPCS1 (Signal peptidase complex subunit 1, Q9Y6A9)): 0.6654 | log2FC compound 41 (HEK293T cells; protein STEAP2 (Metalloreductase STEAP2, Q8NFT2)): 0.6125 | log2FC compound 41 (HEK293T cells; protein SURF4 (Surfeit locus protein 4, O15260)): 0.8751 | log2FC compound 41 (HEK293T cells; protein TECR (Very-long-chain enoyl-CoA reductase, Q9NZ01)): 0.5914 | log2FC compound 41 (HEK293T cells; protein TMCC3 (Transmembrane and coiled-coil domain protein 3, Q9ULS5)): 0.6529 | log2FC compound 41 (HEK293T cells; protein TMED5 (Transmembrane emp24 domain-containing protein 5, Q9Y3A6)): 0.6722 | log2FC compound 41 (HEK293T cells; protein TMEM41A (Transmembrane protein 41A, Q96HV5)): 0.881 | log2FC compound 41 (HEK293T cells; protein TMSB4X (Thymosin beta-4, P62328)): -1.1542 | log2FC compound 41 (HEK293T cells; protein TVP23C (Golgi apparatus membrane protein TVP23 homolog C, Q96ET8)): 0.698 | log2FC compound 41 (HEK293T cells; protein UBE2R2 (Ubiquitin-conjugating enzyme E2 R2, Q712K3)): -0.7129 | log2FC compound 41 (HEK293T cells; protein WHAMM (WASP homolog-associated protein with actin, membranes and microtubules, Q8TF30)): -0.8329 | log2FC compound 41 (HEK293T cells; protein XPOT (Exportin-T, O43592)): 0.6641 | log2FC compound 41 (HEK293T cells; protein ZBTB17 (Zinc finger and BTB domain-containing protein 17, Q13105)): 1.0947 | DMax (%) (Cyclin K [1]): >95% | DC50 (Cyclin K [1]; read-out: CycK DC50): 141 nM | Remaining Cyclin K (%) (Cyclin K [2]): 3 ± 1%
